≈ marks a conversion by molar mass, not a printed value. Where two headings read alike, the source gives them in different places.

The subject of one series is Proteus vulgaris GN 4413. The experiment in a line: Antibacterial activity against clinically isolated β-lactamase (cephalosporinase) producing strains (MIC). Conditions: Proteus vulgaris. It counts as cell-based. In short, it runs like this: (§1)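 Standard JCS agar dilution; inoculum 10⁶ cells per milliliter; plates incubated 18 to 20 hours before MIC reading.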
In another series the test system is Serratia marcescens L-65. The description is as above. It counts as cell-based. Particulars: Serratia marcescens, L65, Serratia marcescens L-65; cephalosporinase producing strain, SDA, 18 to 20 hours; read-out: MIC. The procedure, abridged:
as §1

The next series has as its system Proteus morganii GN 5407. The series is described as above. Particulars: Morganella morganii, GN5407, cephalosporinase producing strain, SDA, 18 to 20 hours, read-out: MIC. It counts as cell-based. In short, it runs like this: as §1
Series [1] deals with Pseudomonas aeruginosa GN 10367. The description is as above. Type of series: cell-based. Particulars: Pseudomonas aeruginosa, GN10367, Pseudomonas aeruginosa GN 10367; cephalosporinase producing strain, SDA, 18 to 20 hours. The procedure, abridged:
as §1

The subject of series [2] is Enterobacter cloacae GN 7467. The series is described as above. It counts as cell-based. Particulars: GN7467; Enterobacter cloacae GN 7467; cephalosporinase producing strain, SDA, 18 to 20 hours; read-out: MIC. In short, it runs like this:
as §1

Series [3] relates to Enterobacter cloacae GN 7471. Described as above. Particulars: GN7471, cephalosporinase producing strain, SDA, 18 to 20 hours, read-out: MIC. Type of series: cell-based. In short, it runs like this:
as §1

In series [4] the test system is Pseudomonas cepacia GN 11164. The series is described as above. Particulars: Burkholderia cepacia, GN11164, cephalosporinase producing strain, SDA, 18 to 20 hours, read-out: MIC. It counts as cell-based. In short, it runs like this:
as §1

The test system of series [5] is Pseudomonas aeruginosa GN 918. The series is described as above. Type of series: cell-based. Conditions: GN918; Pseudomonas aeruginosa GN 918; cephalosporinase producing strain, SDA, 18 to 20 hours; read-out: MIC. In short, it runs like this:
as §1

In the next series the test system is Escherichia coli No. 96. The description is as above. Type of series: cell-based. Conditions: cephalosporinase producing strain, SDA, 18 to 20 hours, read-out: MIC. In short, it runs like this: as §1
The next series relates to Proteus morganii GN 5375. The description is as above. Type of series: cell-based. Conditions: Morganella morganii, GN5375, cephalosporinase producing strain, SDA, 18 to 20 hours, read-out: MIC. In short, it runs like this: as §1
In series [6] the target is T1, Swine Kidney Dehydropeptidase-I (DHP-I) (Sus scrofa, UniProt P22412).
T1 construct: made soluble by treatment with butanol and purified by the ammonium sulfate fraction method, thereby producing DHP-I enzyme from a 75% ammonium sulfate fraction; from tissue; host or cells: swine kidney
The experiment in a line: Stability of test compounds against DHP-I by HPLC. Type of series: in vitro ADME. Conditions: 37°C, Substrate Concentration: 100 μM. On the procedure:
The swine kidney (8 kg) was homogenized and the enzyme protein was allowed to precipitate. After a connective lipid was removed with acetone, the resultant material was made soluble by treatment with butanol and purified by the ammonium sulfate fraction method, thereby producing DHP-I enzyme from a 75% ammonium sulfate fraction. The DHP-I enzyme was then adjusted to give an enzyme concentration of 25 mg/10 ml (phosphate buffer, pH 7.1), and divided into 1 ml portions. The portions were frozen and stored at -40°C or less until use. Crystalline compound (20) obtained in Example 11 and amorphous compound (14) obtained in Example 5 below were used as a test compound. The test compound was adjusted in situ to give a concentration of 117 µM with a 50 mM sodium phosphate buffer solution (pH =7.1). Glycyl dehydrophenylalanine (Gl-dh-Ph) and imipenem were employed as control compounds, and they were adjusted in situ each to give a concentration of 117 µM with the same sodium phosphate buffer solution. The test compound according to the present invention and the control compounds were treated in substantially the same manner as (1) above. The incubation, however, was conducted at 37°C for 4.5 hours or for 24 hours. The degree of hydrolysis of the compounds each after the test periods was measured by the HPLC method.

Series [7] relates to P. aeruginosa resistant strains. The experiment in a line: Sensitivity test against clinical isolates, agar plate dilution method. It counts as cell-based. Particulars: 54 strains of P. aeruginosa having an anti-Pseudomonas resistance. On the procedure: The test procedures were based on the agar plate dilution method in accordance with the standard method of The Japanese Chemotherapy Society. The minimum inhibitory concentration (MIC) was determined in substantially the same manner as the test procedures II above using the 54 strains of P. aeruginosa having an anti-Pseudomonas resistance.

T1 sequence (P22412 17-384): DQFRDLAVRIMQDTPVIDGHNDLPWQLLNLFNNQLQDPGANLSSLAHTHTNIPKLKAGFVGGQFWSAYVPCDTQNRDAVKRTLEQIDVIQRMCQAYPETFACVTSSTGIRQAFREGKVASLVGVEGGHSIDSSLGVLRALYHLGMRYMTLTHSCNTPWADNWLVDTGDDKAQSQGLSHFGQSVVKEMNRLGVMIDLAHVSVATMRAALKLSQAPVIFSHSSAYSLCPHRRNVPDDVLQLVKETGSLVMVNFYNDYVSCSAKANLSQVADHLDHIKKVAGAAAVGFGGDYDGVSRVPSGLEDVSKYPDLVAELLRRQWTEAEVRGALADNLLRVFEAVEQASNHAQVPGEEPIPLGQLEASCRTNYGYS

Turning to `C[C@@H](O)[C@H]1C(=O)N2C(C(=O)O)=C(SCCN=CN)C[C@H]12` [Imipenem, imipenem], the MIC against Proteus vulgaris GN 4413 (GN4413) was determined as 6.25 µg/mL (≈ 20.9 µM); in the series with Serratia marcescens L-65 it was 0.39 µg/mL (≈ 1.3 µM); in the series on Proteus morganii GN 5407, 3.13 µg/mL (≈ 10.5 µM); in series [1], 1.56 µg/mL (≈ 5.21 µM); in series [2], 0.78 µg/mL (≈ 2.61 µM); in [3], 0.2 µg/mL (≈ 0.668 µM). Besides, the MIC in series [4] was 3.13 µg/mL (≈ 10.5 µM); in series [5], 0.78 µg/mL (≈ 2.61 µM); in the series on Escherichia coli No. 96, 0.1 µg/mL (≈ 0.334 µM); in the series with Proteus morganii GN 5375, 3.13 µg/mL (≈ 10.5 µM). In addition, the “DEGREES OF HYDROLYSIS BY DHP-I” value is 77.6 µM in [6] (4.5 hours); “* After 24 hours at 37°C, it has been found that most or all imipenem has been decomposed and nothing remained was detected” in series [6] (24 hours). The “concentration to inhibit the growth of all the test microorganisms” value in [7] came to 12.5 µg/mL. Besides, in series [7] (concentration of 6.25 µg/ml, read-out: test microorganisms whose growth is inhibited), the percent of strains inhibited at 6.25 µg/mL is around 98%.

Regarding `C[C@@H](O)[C@H]1C(=O)N2C(C(=O)[O-])=C(SCc3cs[n+](C)n3)[C@H](C)[C@H]12` [Amorphous Compd. (14), (1R,5S,6S)-2-[(2-methyl-1,2,3-thiadiazolium-4-yl)methyl]thio-6-[(R)-1-hydroxyethyl]-1-methyl-carbapenem-3-carboxylate], the MIC in the series on Proteus vulgaris GN 4413 (GN4413, Proteus vulgaris GN 4413, cephalosporinase producing strain, SDA, 18 to 20 hours, read-out: MIC) was found to be 6.25 µg/mL (≈ 17.6 µM); in the series on Serratia marcescens L-65, 0.78 µg/mL (≈ 2.19 µM); in the series with Proteus morganii GN 5407, 6.25 µg/mL (≈ 17.6 µM); in [1], 1.56 µg/mL (≈ 4.39 µM); in series [2], 3.13 µg/mL (≈ 8.81 µM); in series [3] it was 0.1 µg/mL (≈ 0.281 µM). In addition, the MIC stood at 0.39 µg/mL (≈ 1.1 µM) in series [4], 0.78 µg/mL (≈ 2.19 µM) in [5], 0.05 µg/mL (≈ 0.141 µM) with Escherichia coli No. 96 and 3.13 µg/mL (≈ 8.81 µM) in the series with Proteus morganii GN 5375.

By MIC is commonly meant the lowest concentration found to suppress growth.

The values above are taken from patent EP0326640B1, “(1R,5S,6S)-2-substituted thio-6 (R)-1-hydroxyethyl -1-methyl-carbapenem - carboxylic acid derivatives” (LEDERLE (JAPAN) LTD., priority 1987, dated 1989).
